According to patent US4489091A, “Antilipemic and anti-inflammatory compositions containing sulfonate derivatives” (Taiho Pharmaceutical Company Limited, priority 1980, dated 1984):
Read-outs that look alike come from different tables or passages of the source.

What was measured:
triglycerides = assay: Antilipemic effect: percent triglycerides inhibition in plasma of rats given an olive oil-cholesterol mixture; format: in vivo, male Wistar rats; settings: for inhibition in vivo at 100 mg/kg: read-out: Anti-lipemic effect, TG (percent triglycerides inhibition); for inhibition in vivo at 200 mg/kg: read-out: Anti-lipemic effect, TG (percent triglycerides inhibition), asterisked
Description: (§1) The above compounds of this invention are tested by the following methods for antilipemic effect and acute toxicity. In the column of antilipemic effect in the table, the asterisked values indicate the effect achieved by orally giving 200 mg/kg of the compounds concerned, and the unmarked values, the effect attained by orally giving 100 mg/kg. In the same column, "TG" stands for percent triglycerides inhibition and "CS" percent cholesterol inhibition.
(§2) Seven-week-old male Wistar rats weighing 200 to 220 g are used, 5 rats in each group.
(§3) Each compound of the invention (100 mg or 200 mg) is dissolved in 10 ml of an olive oil-cholesterol mixture (containing 15% of cholesterol). The mixture containing the compound is orally given to the rat with a probe at a dose of 10 ml/kg. Two or 8 hours thereafter, 6 ml of whole blood is withdrawn from the descending aorta of the rat under ether anesthesia with a syringe containing heparin. The blood is centrifuged at 5° C. and 3000 r.p.m. to obtain the plasma. The plasma collected after the lapse of 2 hours is used for determining the triglycerides content, and the plasma obtained 8 hours later for determining the total cholesterol content, using a triglycerides measuring kit (trade mark "Triglycerides-B Test Wako," product of Wako Junyaku Co., Ltd., Japan) and a total cholesterol measuring kit (trade mark "Cholesterol Test Wako," product of the same), respectively. The olive oil-cholesterol mixture containing no compound is similarly given to a control group, while no treatment is conducted for a normal group. The triglycerides and total cholesterol contents in the plasma are also determined for these groups in the same manner as is the case with the test groups.
(§4) The present hyperlipidemia inhibition achieved by the present compound is given by [formula] in which A is the triglycerides (cholesterol) content of the control group, B is the triglycerides (cholesterol) content of the normal group, and C is the triglycerides (cholesterol) content of the group to which the present compound is given.

cholesterol = assay: Antilipemic effect: percent total cholesterol inhibition in plasma of rats given an olive oil-cholesterol mixture; format: in vivo, male Wistar rats; settings: for inhibition in vivo at 100 mg/kg: read-out: Anti-lipemic effect, CS (percent cholesterol inhibition); for Anti-lipemic effect, CS (percent cholesterol inhibition), asterisked: oral 200 mg/kg (asterisked values)
Description: as §1, §2, §3, §4

Acute toxicity = settings: rat, in vivo
Description: Six-week-old male Wistar rats weighing 180 to 200 g are used, 5 rats in each group. Each compound of the invention is suspended in a 30% aqueous solution of polyethylene glycol 6000 and orally given to the rat at the dosage shown in Table 2. The animals are checked for poisoning, body weight and survival to determine the LD50 value.

[1] = oral 100 mg/kg, plasma 2 hours after dosing, Wistar rat
[2] = oral 100 mg/kg, plasma 8 hours after dosing, Wistar rat
[3] = oral, six-week-old male Wistar rats, suspended in 30% aqueous polyethylene glycol 6000, read-out: LD50
[4] = oral 200 mg/kg (asterisked values), plasma 2 hours after dosing, Wistar rat
[5] = plasma 8 hours after dosing, Wistar rat

SMILES | inhibition in vivo at 100 mg/kg (triglycerides; [1]) | inhibition in vivo at 100 mg/kg (cholesterol; [2]) | LD50 (Acute toxicity; po) | further results
CCCCCCCC(=O)COS(=O)(=O)c1c(C)cc(C)cc1C [Compound 77, 2-oxononanyl-2,4,6-trimethylbenzene sulfonate] | 80% | 74% |  | LD50 (Acute toxicity; [3]): > 4000 mg/kg
CCCCCCCCCCC(=O)COS(=O)(=O)c1ccc(OCC)cc1 [Compound 48] |  | 55% | > 4000 mg/kg | inhibition in vivo at 200 mg/kg (triglycerides; [4]): 72%
CCCCC(CCCC)C(=O)COS(=O)(=O)c1c(C)cc(C)cc1C [Compound 157] | 67% | 66% | > 4000 mg/kg | 
CCCCCC(=O)COS(=O)(=O)c1ccc(OC)cc1 [Compound 36] | 78% | 79% | > 2000 mg/kg | 
CCCCCCC(=O)COS(=O)(=O)c1c(C)cc(C)c(C)c1C [Compound 97] | 55% | 47% | > 3000 mg/kg | 
CCOc1ccc(S(=O)(=O)OCC(=O)CCCCCCC(C)C)cc1 [Compound 51] |  |  |  | inhibition in vivo at 200 mg/kg (triglycerides; Rattus norvegicus, po, 2 h): 70%; inhibition in vivo at 100 mg/kg (cholesterol; Rattus norvegicus, po, 8 h): 62%; LD50 (Acute toxicity; [3]): > 4000 mg/kg
CCCCC(=O)COS(=O)(=O)c1ccc(OC)cc1 [Compound 35, 2-oxahexyl-p-methoxybenzene sulfonate] | 87% | 72% |  | LD50 (Acute toxicity; [3]): > 2000 mg/kg
CCCC(=O)COS(=O)(=O)c1c(C)cc(C)c(C)c1C [Compound 95, 2-oxopentyl-2,3,4,6-tetramethylbenzene sulfonate] | 96% | 97% |  | LD50 (Acute toxicity; [3]): > 3000 mg/kg
CCC(C)C(=O)COS(=O)(=O)c1c(C)cc(C)cc1C (stereo not drawn) [Compound 147] | 98% | 72% | > 3000 mg/kg | 
CCCCC(C)C(=O)COS(=O)(=O)c1ccc(C)cc1 (stereo not drawn) [Compound 127] | 92% | 67% | > 3000 mg/kg | 
CCCC(=O)COS(=O)(=O)c1ccc(OCC)cc1 [Compound 43] |  |  |  | inhibition in vivo at 100 mg/kg (triglycerides; Rattus norvegicus, po, 2 h): 97%; inhibition in vivo at 100 mg/kg (cholesterol; Rattus norvegicus, po, 8 h): 120%; LD50 (Acute toxicity; [3]): > 2000 mg/kg
CCCC(CC)C(=O)COS(=O)(=O)c1ccc(C)cc1 (stereo not drawn) [Compound 123] | 67% | 60% | > 3000 mg/kg | 
CC(C)(C)CC(=O)COS(=O)(=O)c1ccccc1 [Compound 11] | 80% | 53% | > 3000 mg/kg | 
CCCCC(CCC)C(=O)COS(=O)(=O)c1c(C)cc(C)cc1C (stereo not drawn) [Compound 156] | 58% | 62% | 4000 mg/kg | 
CCCCC(CC)C(=O)COS(=O)(=O)c1c(C)cc(C)c(C)c1C (stereo not drawn) [Compound 100] |  |  | > 4000 mg/kg | inhibition in vivo at 200 mg/kg (triglycerides; [4]): 66%; Anti-lipemic effect, CS (percent cholesterol inhibition), asterisked (cholesterol; [5]): 42%
CCC(C)CCC(=O)COS(=O)(=O)c1c(C)cc(C)cc1C (stereo not drawn) [Compound 159] | 49% | 51% | > 4000 mg/kg | 
Cc1ccc(S(=O)(=O)OCC(=O)CCC(C)C)cc1 [Compound 126] | 61% | 47% | > 3000 mg/kg | 
CCCCC(CCC)C(=O)COS(=O)(=O)c1ccc(C)cc1 (stereo not drawn) [Compound 128] | 62% | 51% | > 3000 mg/kg | 

SMILES | inhibition in vivo at 100 mg/kg (triglycerides; [1]) | inhibition in vivo at 100 mg/kg (cholesterol; [2]) | LD50 (Acute toxicity; po) | further results
CCC(C)C(=O)COS(=O)(=O)c1c(C)cc(C)c(C)c1C (stereo not drawn) [Compound 99] | 72% | 78% | > 3000 mg/kg | 
CCCCC(CCC)C(=O)COS(=O)(=O)c1ccc(OCC)cc1 (stereo not drawn) [Compound 140] | 67% | 61% | > 3000 mg/kg | 
CCCCCC(=O)COS(=O)(=O)c1ccc(OCC)cc1 [Compound 45, 2-oxoheptyl-p-ethoxybenzenesulfonate] | 85% | 80% |  | LD50 (Acute toxicity; [3]): > 3000 mg/kg
CCCC(C)C(=O)COS(=O)(=O)c1ccc(C)cc1 (stereo not drawn) [Compound 122] | 65% | 51% | > 3000 mg/kg | 
CCCCCC(C)C(=O)COS(=O)(=O)c1ccc(OCC)cc1 (stereo not drawn) [Compound 146] | 85% | 77% | > 4000 mg/kg | 
CCC(C)CC(=O)COS(=O)(=O)c1ccc(C)cc1 (stereo not drawn) [Compound 125] | 68% | 44% | > 3000 mg/kg | 
CCCCC(=O)COS(=O)(=O)c1ccc(OCC)cc1 [Compound 44] | 99% | 90% | > 2000 mg/kg | 
CCCC(=O)COS(=O)(=O)c1c(CC)cc(CC)cc1CC [Compound 114] | 87% | 76% | > 3000 mg/kg | 
CCC(CC)CC(=O)COS(=O)(=O)c1c(C)cc(C)cc1C [Compound 154] | 76% | 70% | > 4000 mg/kg | 
CCCC(C)C(=O)COS(=O)(=O)c1c(C)cc(C)cc1C (stereo not drawn) [Compound 150] | 84% | 79% | > 3000 mg/kg | 
CCCC(=O)COS(=O)(=O)c1ccc(C)c(C)c1C [Compound 117] | 70% | 71% | > 2000 mg/kg | 
CCCCCCCCC(=O)COS(=O)(=O)c1ccc(C)cc1 [Compound 21] |  |  | > 3000 mg/kg | inhibition in vivo at 200 mg/kg (triglycerides; [4]): 70%; Anti-lipemic effect, CS (percent cholesterol inhibition), asterisked (cholesterol; [5]): 43%
CC(C)CCC(=O)COS(=O)(=O)c1ccc(Cl)cc1 [Compound 70] | 82% | 47% | > 2000 mg/kg | 
CCCC(=O)COS(=O)(=O)c1ccc(C)cc1C [Compound 112] | 80% | 62% | > 2000 mg/kg | 
CCOc1ccc(S(=O)(=O)OCC(=O)CC(C)CC)cc1 (stereo not drawn) [Compound 136] | 80% | 99% | > 4500 mg/kg | 
CCCCC(=O)COS(=O)(=O)c1ccc(Cl)cc1 [Compound 65] | 87% | 49% | > 1000 mg/kg | 
CCCC(CCC)C(=O)COS(=O)(=O)c1ccc(C)cc1 [Compound 124] | 62% | 42% | > 3000 mg/kg | 
CCCCCCCC(=O)COS(=O)(=O)c1ccc(C)cc1 [Compound 20] | 71% | 47% | > 3000 mg/kg | 
